Experiments:
Assay type in all cases: functional
[1] = tested on: SK-MEL-28; assay: Growth inhibition of human SK-MEL-28 cells assessed as cell growth at 10^-6 M after 48 hrs by sulforhodamine B assay; settings: SK-MEL-28, 48 h, read-out: Activity
[2] = tested on: MDA-MB-435; assay: Growth inhibition of human MDA-MB-435 cells assessed as cell growth at 10^-6 M after 48 hrs by sulforhodamine B assay; settings: MDA-MB-435, 48 h, read-out: Activity
[3] = tested on: SR; assay: Growth inhibition of human SR cells assessed as cell growth at 10^-6 M after 48 hrs by sulforhodamine B assay; settings: read-out: Activity
[4] = tested on: MDA-MB-468; assay: Growth inhibition of human MDA-MB-468 cells assessed as cell growth at 10^-7 M after 48 hrs by sulforhodamine B assay; settings: MDA-MB-468, 48 h, read-out: Activity
[5] = Growth inhibition of human RXF393 cells assessed as cell growth at 10^-7 M after 48 hrs by sulforhodamine B assay; settings: RXF 393, 48 h, read-out: Activity
[6] = Growth inhibition of human OVCAR4 cells assessed as cell growth at 10^-7 M after 48 hrs by sulforhodamine B assay; settings: OVCAR-4, 48 h, read-out: Activity
[7] = tested on: U-251; assay: Growth inhibition of human U251 cells assessed as cell growth at 10^-5 M after 48 hrs by sulforhodamine B assay; settings: U-251, 48 h, read-out: Activity
[8] = Growth inhibition of human BT549 cells assessed as cell growth at 10^-6 M after 48 hrs by sulforhodamine B assay; settings: BT-549, 48 h, read-out: Activity
[9] = Growth inhibition of human NCI-ADR-RES cells assessed as cell growth at 10^-6 M after 48 hrs by sulforhodamine B assay; settings: read-out: Activity
[10] = tested on: SNB-75; assay: Growth inhibition of human SNB75 cells assessed as cell growth at 10^-4 M after 48 hrs by sulforhodamine B assay; settings: SNB-75, 48 h, read-out: Activity
[11] = Growth inhibition of human UACC62 cells assessed as cell growth at 10^-8 M after 48 hrs by sulforhodamine B assay; settings: UACC-62, 48 h; for growth at 0.01 µM: read-out: Activity; for TGI: read-out: pTGI (converted)
[12] = tested on: Malme-3M; assay: Growth inhibition of human MALME-3M cells assessed as cell growth at 10^-8 M after 48 hrs by sulforhodamine B assay; settings: for growth at 0.01 µM: read-out: Activity
[13] = Growth inhibition of human SF539 cells assessed as cell growth at 10^-8 M after 48 hrs by sulforhodamine B assay; settings: SF-539, 48 h; for growth at 0.01 µM: read-out: Activity; for TGI: read-out: pTGI (converted)
[14] = tested on: SW-620; assay: Growth inhibition of human SW620 cells assessed as cell growth at 10^-8 M after 48 hrs by sulforhodamine B assay; settings: SW-620, 48 h; for growth at 0.01 µM: read-out: Activity; for TGI: read-out: pTGI (converted)
[15] = tested on: NCI-H23; assay: Growth inhibition of human NCI-H23 cells assessed as cell growth at 10^-8 M after 48 hrs by sulforhodamine B assay; settings: NCI-H23, 48 h; for growth at 0.01 µM: read-out: Activity; for TGI: read-out: pTGI (converted)
[16] = tested on: SR; assay: Growth inhibition of human SR cells assessed as cell growth at 10^-8 M after 48 hrs by sulforhodamine B assay; settings: for growth at 0.01 µM: read-out: Activity; for TGI: read-out: pTGI (converted)
[17] = tested on: CCRF-CEM; assay: Growth inhibition of human CCRF-CEM cells assessed as cell growth at 10^-8 M after 48 hrs by sulforhodamine B assay; settings: for growth at 0.01 µM: read-out: Activity; for CC50: read-out: pLC50 (the source's name) (converted); for TGI: read-out: pTGI (converted)
[18] = Growth inhibition of human RXF393 cells after 48 hrs by sulforhodamine B assay; settings: RXF 393, 48 h; for CC50: read-out: LC50 (the source's name)
[19] = Growth inhibition of human NCI-ADR-RES cells after 48 hrs by sulforhodamine B assay; settings: for CC50: read-out: LC50 (the source's name)
[20] = Growth inhibition of human OVCAR3 cells after 48 hrs by sulforhodamine B assay; settings: OVCAR-3, 48 h; for CC50: read-out: LC50 (the source's name)
[21] = tested on: RPMI-8226; assay: Growth inhibition of human RPMI8226 cells after 48 hrs by sulforhodamine B assay; settings: RPMI-8226, 48 h
[22] = tested on: K562; assay: Growth inhibition of human K562 cells after 48 hrs by sulforhodamine B assay; settings: K562, 48 h; for CC50: read-out: LC50 (the source's name)
[23] = tested on: MDA-MB-468; assay: Growth inhibition of human MDA-MB-468 cells assessed as cell growth at 10^-4 M after 48 hrs by sulforhodamine B assay; settings: MDA-MB-468, 48 h, read-out: Activity
[24] = tested on: DU-145; assay: Growth inhibition of human DU145 cells assessed as cell growth at 10^-4 M after 48 hrs by sulforhodamine B assay; settings: DU-145, 48 h, read-out: Activity
[25] = tested on: ACHN; assay: Growth inhibition of human ACHN cells assessed as cell growth at 10^-4 M after 48 hrs by sulforhodamine B assay; settings: read-out: Activity
[26] = tested on: IGROV-1; assay: Growth inhibition of human IGROV1 cells assessed as cell growth at 10^-7 M after 48 hrs by sulforhodamine B assay; settings: IGROV-1, 48 h, read-out: Activity
[27] = Growth inhibition of human UACC62 cells assessed as cell growth at 10^-7 M after 48 hrs by sulforhodamine B assay; settings: UACC-62, 48 h, read-out: Activity
[28] = tested on: SK-MEL-5; assay: Growth inhibition of human SK-MEL-5 cells assessed as cell growth at 10^-7 M after 48 hrs by sulforhodamine B assay; settings: SK-MEL-5, 48 h, read-out: Activity
[29] = tested on: NCI-H23; assay: Growth inhibition of human NCI-H23 cells assessed as cell growth at 10^-7 M after 48 hrs by sulforhodamine B assay; settings: NCI-H23, 48 h, read-out: Activity
[30] = tested on: ACHN; assay: Growth inhibition of human ACHN cells assessed as cell growth at 10^-8 M after 48 hrs by sulforhodamine B assay; settings: for growth at 0.01 µM: read-out: Activity; for TGI: read-out: pTGI (converted)
[31] = Growth inhibition of human OVCAR5 cells assessed as cell growth at 10^-8 M after 48 hrs by sulforhodamine B assay; settings: OVCAR-5, 48 h; for growth at 0.01 µM: read-out: Activity; for TGI: read-out: pTGI (converted)
[32] = Growth inhibition of human OVCAR4 cells assessed as cell growth at 10^-8 M after 48 hrs by sulforhodamine B assay; settings: OVCAR-4, 48 h; for growth at 0.01 µM: read-out: Activity; for TGI: read-out: pTGI

`O=C1/C(=C/c2ccc(Cl)cc2Cl)CN(S(=O)(=O)c2ccccc2)C/C1=C\c1ccc(Cl)cc1Cl` showed a growth at 1 µM [1] of 93%, a growth at 1 µM [2] of 50% and a growth at 1 µM [3] of -5%. For the same compound, the growth at 0.1 µM [4] was 94%, the growth at 0.1 µM [5] was 84% and the growth at 0.1 µM [6] was 82%. The growth at 10 µM [7] was -66%, the growth at 1 µM [8] was 50% and the growth at 1 µM [9] was 54%. It also gave a growth at 100 µM [10] of -33%, a GI50 [11] of 0.813 µM and an LC50 [11] of 5.75 µM. The growth at 0.01 µM [11] was 94%, the TGI [11] was 2.29 µM and the GI50 [12] was 3.24 µM. For the same compound, the LC50 [12] was over 100 µM, the growth at 0.01 µM [12] was 118% and the GI50 [13] was 0.427 µM. It also gave an LC50 [13] of over 100 µM, a growth at 0.01 µM [13] of 98% and a TGI [13] of 2.09 µM. For the same compound, the GI50 [14] was 0.316 µM, the LC50 [14] was over 100 µM and the growth at 0.01 µM [14] was 97%. For the same compound, the TGI [14] was 2.82 µM, the GI50 [15] was 0.427 µM and the LC50 [15] was over 100 µM. For the same compound, the growth at 0.01 µM [15] was 103%, the TGI [15] was 2.69 µM and the GI50 [16] was 0.186 µM. The LC50 [16] was over 100 µM, the growth at 0.01 µM [16] was 93% and the TGI [16] was 0.871 µM. It also gave a GI50 [17] of 0.288 µM, a growth at 0.01 µM [17] of 98% and a CC50 [17] of over 100 µM. For the same compound, the TGI [17] was 1 µM, the GI50 [18] was 1.06 µM and the TGI [18] was 2.42 µM. The CC50 [18] was 5.54 µM, the GI50 [19] was 1.37 µM and the TGI [19] was over 100 µM. It also gave a CC50 [19] of over 100 µM, a GI50 [20] of 0.31 µM and a TGI [20] of 0.818 µM. It also gave a CC50 [20] of 5.01 µM, a GI50 [21] of 0.225 µM and an LC50 [21] of over 100 µM. For the same compound, the TGI [21] was 0.605 µM, the GI50 [22] was 0.346 µM and the TGI [22] was over 100 µM. For the same compound, the CC50 [22] was over 100 µM, the growth at 100 µM [23] was -34% and the growth at 100 µM [24] was -10%. It also gave a growth at 100 µM [25] of -17%, a growth at 0.1 µM [26] of 130% and a growth at 0.1 µM [27] of 95%. The growth at 0.1 µM [28] was 98%, the growth at 0.1 µM [29] was 104% and the GI50 [30] was 0.871 µM. It also gave an LC50 [30] of over 100 µM, a growth at 0.01 µM [30] of 99% and a TGI [30] of 4.57 µM. For the same compound, the GI50 [31] was 2.14 µM, the LC50 [31] was over 100 µM and the growth at 0.01 µM [31] was 92%. For the same compound, the TGI [31] was 7.41 µM, the GI50 [32] was 0.282 µM and the LC50 [32] was over 100 µM. The growth at 0.01 µM [32] was 102% and the TGI [32] was over 100 µM.
For `Cc1ccc(S(=O)(=O)N2C/C(=C\c3cc(F)cc(F)c3)C(=O)/C(=C/c3cc(F)cc(F)c3)C2)cc1`, the growth at 1 µM [1] was 29%, the growth at 1 µM [2] was -18% and the growth at 1 µM [3] was -20%. For the same compound, the growth at 0.1 µM [4] was 83%, the growth at 0.1 µM [5] was 88% and the growth at 0.1 µM [6] was 93%. The growth at 10 µM [7] was -97.9%, the growth at 1 µM [8] was -4% and the growth at 1 µM [9] was 19%. For the same compound, the growth at 100 µM [10] was -86%, the GI50 [11] was 0.214 µM and the LC50 [11] was 1.62 µM. The growth at 0.01 µM [11] was 94%, the TGI [11] was 0.513 µM and the GI50 [12] was 0.275 µM. For the same compound, the LC50 [12] was 3.8 µM, the growth at 0.01 µM [12] was 97% and the TGI ([12]; read-out: pTGI (converted)) was 0.741 µM. For the same compound, the GI50 [13] was 1.2 µM, the LC50 [13] was 6.76 µM and the growth at 0.01 µM [13] was 94%. For the same compound, the TGI [13] was 2.88 µM, the GI50 [14] was 0.0724 µM and the LC50 [14] was 1.45 µM. It also gave a growth at 0.01 µM [14] of 99%, a TGI [14] of 0.302 µM and a GI50 [15] of 1.74 µM. The LC50 [15] was 26.9 µM, the growth at 0.01 µM [15] was 98% and the TGI [15] was 5.01 µM. The GI50 [16] was 0.0347 µM, the LC50 [16] was over 100 µM and the growth at 0.01 µM [16] was 93%. The TGI [16] was 0.251 µM, the GI50 [17] was 0.0741 µM and the growth at 0.01 µM [17] was 95%. It also gave a CC50 [17] of over 100 µM, a TGI [17] of 0.955 µM and a GI50 [18] of 0.723 µM. For the same compound, the TGI [18] was 2.14 µM, the CC50 [18] was 5.13 µM and the GI50 [19] was 0.439 µM. It also gave a TGI [19] of 10.1 µM, a CC50 [19] of 76.7 µM and a GI50 [20] of 0.441 µM. For the same compound, the TGI [20] was 1.44 µM, the CC50 [20] was 4.56 µM and the GI50 [21] was 0.0372 µM. For the same compound, the LC50 [21] was 93.8 µM, the TGI [21] was 0.331 µM and the GI50 [22] was 0.0772 µM. It also gave a TGI [22] of 1.37 µM, a CC50 [22] of over 100 µM and a growth at 100 µM [23] of -79%. For the same compound, the growth at 100 µM [24] was -87%, the growth at 100 µM [25] was -94% and the growth at 0.1 µM [26] was 106%. The growth at 0.1 µM [27] was 93%, the growth at 0.1 µM [28] was 89% and the growth at 0.1 µM [29] was 100%. For the same compound, the GI50 [30] was 0.245 µM, the LC50 [30] was 2.4 µM and the growth at 0.01 µM [30] was 101%. It also gave a TGI [30] of 0.617 µM, a GI50 [31] of 1.02 µM and an LC50 [31] of 7.41 µM. It also gave a growth at 0.01 µM [31] of 95%, a TGI [31] of 2.75 µM and a GI50 [32] of 0.437 µM. It also gave an LC50 [32] of 36.3 µM, a growth at 0.01 µM [32] of 100% and a TGI [32] of 5.25 µM.

— ChEMBL document CHEMBL3217615, “Novel 3,5-bis(arylidiene)-4-piperidone based monocarbonyl analogs of curcumin: anticancer activity evaluation and mode of action study” (2014)
